{
  "source": "paper PMC9140920",
  "about": "(International Journal of Molecular Sciences, 2022)",
  "key": {"TM4 mouse Sertoli cells": {"test_system": "TM4 mouse Sertoli cells", "assay": "Cell growth and viability (MTT), dose-response of the drugs alone", "assay_type": "cell-based", "details": "TM4 cells; for IC20: read-out: IC20 ± SE; for IC80: read-out: IC80 ± SE; for IC50: read-out: IC50 ± SE", "procedure": "Cells were maintained in standard conditions for 24 h before treatments. […] All azoles were dissolved in DMSO. In an effort to avoid a possible experimental artifact with vehicles, experiments were performed including control groups in which the effect of the drug vehicle alone was tested (vehicle control, vCTR). […] For experiments with N-acetylcysteine (NAC), 24 h after seeding cells were pre-treated for 1 h with the ROS inhibitor (1 mM) and then maintained in co-treatment with azoles for 48 h.\nTM4 cells were seeded at a density of 1 × 10^4/cm^2, and cultures incubated at standard conditions in the presence or the absence of azoles to reach final concentrations ranging from 0.078 µM up to 320 µM in culture medium. Cell growth and viability were assessed at 24 and 48 h by Trypan-blue exclusion assay and MTT (3-(4,5-dimethylthiazol-2-yl)-2,5-diphenyl-2H-tetrazolium-bromide) colorimetric method (Sigma-Aldrich, St. Louis, MO, USA), quantifying the metabolic efficiency of living cells.\nThe Interaction Index (II) was calculated, as previously described, by modifying the Chou and Talalay equation [78]. Specifically, Chou and Talalay’s median-effect method estimates the IC50 and the sigmodicity coefficient m values using linear regression of the linearised dose-response curve.\nFor a two-drug assay, II is the summation of the ratios of the doses (Dn) of the drugs in combination, and the concentrations of the two drugs alone (IDx,n), to obtain a fraction x of cells affected by drug combinations (Fa). IDx,n is estimated by the following equation:(1) IDx,n=IC50(Fa/1−Fa)^1/mn"}, "TM4 cells": {"test_system": "TM4 cells", "assay": "Annexin V-FITC / propidium iodide assay of apoptosis and necrosis", "assay_type": "cell-based, mouse", "details": "for apoptosis induction / cell death: 48 h, annexin V/PI, vs vCTR", "procedure": "Cells were maintained in standard conditions for 24 h before treatments. […] All azoles were dissolved in DMSO. In an effort to avoid a possible experimental artifact with vehicles, experiments were performed including control groups in which the effect of the drug vehicle alone was tested (vehicle control, vCTR). In these experimental conditions, we excluded any negative effects of DMSO that is biocompatible with no biological effect per se. For experiments with N-acetylcysteine (NAC), 24 h after seeding cells were pre-treated for 1 h with the ROS inhibitor (1 mM) and then maintained in co-treatment with azoles for 48 h.\nTreated and control cells (vCTR) (1 × 10^6) were collected; after washing in ice-cold PBS, samples were resuspended in 1 mL of binding buffer (10 mM HEPES, 140 mM NaCl, and 2.5 mM CaCl2, at pH 7.4) containing 10 µg/mL Annexin V-FITC and 1 µg/mL PI. After staining (1 h incubation at room temperature), cells were then washed and subsequently analysed using an FACS Calibur instrument (BD Instruments Inc., San José, CA, USA). Cells treated with 25 µM Etoposide (Eto) for 24 h were used as a positive control for apoptosis induction. Data from 10,000 events per sample were collected and analysed using an FACS Calibur instrument (BD Instruments Inc., San José, CA, USA ) equipped with cell cycle analysis software (Modfit LT for Mac V3.0) in order to calculate the percentages of apoptotic and necrotic cells."}, "C-PARP1 in TM4 cells": {"test_system": "C-PARP1 in TM4 cells", "assay": "Western blot of cleaved PARP1 (C-PARP1)", "assay_type": "cell-based, mouse", "details": "48 h exposure, ratio of cleaved PARP1 to total PARP1, vs vCTR", "procedure": "The protein extracts were run on a 10% SDS-PAGE and transferred onto PVDF filters and maintained at room temperature (RT) for 2 h in 5% non-fat dry milk diluted in TBST (containing 0.1% Tween-20). After washing, membranes were incubated O/N at 4 °C with the primary antibody anti-PARP1 (Cell Signaling, Danvers, MA, USA) diluted to 1:1000 in 1% non-fat dry milk in TBST. After washing, PVDF filters were incubated for 1 h at RT with the anti-rabbit (1:5000) HRP-conjugated secondary antibody (Immunological Sciences, by Società Italiana Chimici, Rome, Italy). ECL West Pico Plus chemiluminescent substrate was used to detect signals using a ChemiDoc XRSplus imaging system (Bio-Rad Laboratories, Hercules, CA, USA). The optical densities of blot bands were quantified using ImageJ software (US National Institutes of Health, Bethesda, MD, USA); the graph values represent the ratios of cleaved PARP1 to total PARP1. ß-actin was used as loading control."}, "[1]": {"test_system": "ROS production in TM4 cells", "assay": "Intracellular ROS detection (DCFH-DA fluorescence)", "assay_type": "cell-based, mouse", "details": "3 h of incubation, vs vCTR", "procedure": "The intracellular ROS production was detected by using 2′,7′-dichlorofluorescein diacetate (DCFH-DA) (Molecular Probes, Eugene, OR, USA), as previously reported. In brief, after 30 min and 3 h of treatments, samples were incubated with 1 µM DCFH-DA at 37 °C for 30 min. Subsequently, cells were collected and twice washed in ice-cold PBS; samples were then analysed using flow cytometry to detect the presence of intracellular ROS at the wavelengths of 502 and 524 nm, for the excitation and the emission, respectively; the fluorescence intensity was detected with a Perkin Elmer LS-50B spectrofluorometer. Cells treated with 500 µM tert-butyl hydroperoxide (t-BHP) for 1.5 h were used as a positive control for ROS generation."}, "[2]": {"details": "cited from earlier work"}, "ΔΨm in TM4 cells": {"test_system": "ΔΨm in TM4 cells", "assay": "Mitochondrial membrane potential (ΔΨm) by JC-1 flow cytometry", "assay_type": "cell-based, mouse", "details": "3 h of incubation, JC-1, vs vCTR", "procedure": "Variations of the ΔΨm in samples exposed to azoles for 3 h were assessed using the lipophilic cation dye JC-1, as previously reported. Cells (1 × 10^6 per sample) were stained for 30 min at 37 °C in a humidified atmosphere, with 3 µM JC-1 (Molecular Probes, Eugene, OR, USA) and collected; after washing in PBS, cells were analysed using flow cytometry. To assure a positive control for the abatement of the ΔΨm, the cells were cultured in the presence of […] rotenone (Sigma-Aldrich, St. Louis, MO, USA) for 1 h at standard conditions, and then incubated with the potentiometric dye as described above. Experiments were performed in triplicate and analysed by an FACS Calibur instrument (BD Instruments Inc., San José, CA, USA). The fluorescent signals from JC-1 monomers or aggregates were detected through the FL-1 (525 ± 5 nm) and FL-2 bandpass filters (575 ± 5 nm), respectively; the forward and side scatter channels gated a minimum of 1 × 10^4 cells on the major population of normal-sized cells. ΔΨm data assessment was performed by the Cell Quest software (BD Instruments Inc., San José, CA, USA)."}, "[3]": {"details": "cited from earlier work", "remark": "listed apart in the source"}, "[4]": {"details": "48 h of exposure, drug alone, 50% fraction of cells affected (Fa), non-linear fitting"}, "[5]": {"details": "Mus musculus, 48 h of exposure, drug alone, 20% fraction of cells affected (Fa), non-linear fitting"}, "[6]": {"details": "Mus musculus, 48 h of exposure, drug alone, 80% fraction of cells affected (Fa), non-linear fitting"}},
  "note": "Like-named read-outs stand apart in the source and are kept apart here.",
  "data": [
    {"smiles": "OC(Cn1cncn1)(Cn1cncn1)c1ccc(F)cc1F", "note": "[FCZ, fluconazole]", "values": [
      {"measurement": "IC20 ± SE", "setting": "TM4 mouse Sertoli cells; 48 h of exposure, drug alone, 20% fraction of cells affected (Fa), non-linear fitting", "result": "Not detectable"},
      {"measurement": "IC50 ± SE", "setting": "TM4 mouse Sertoli cells; [4]", "result": "Not detectable"},
      {"measurement": "IC80 ± SE", "setting": "TM4 mouse Sertoli cells; 48 h of exposure, drug alone, 80% fraction of cells affected (Fa), non-linear fitting", "result": "Not detectable"},
      {"measurement": "cytotoxic effects", "setting": "TM4 mouse Sertoli cells; up to 320 µM, individually or in combination", "result": "no cytotoxic effects"}
    ]},
    {"smiles": "Clc1ccc(COC(Cn2ccnc2)c2ccc(Cl)cc2Cl)c(Cl)c1", "note": "(stereo not drawn) [MCZ, miconazole]", "values": [
      {"measurement": "IC20", "setting": "TM4 mouse Sertoli cells; [5]", "result": "8.6 ± 0.6", "unit": "µM"},
      {"measurement": "IC80", "setting": "TM4 mouse Sertoli cells; [6]", "result": "138 ± 9.8", "unit": "µM"},
      {"measurement": "apoptosis induction / cell death", "setting": "TM4 cells", "result": "a level of apoptosis-induction occurred"},
      {"measurement": "C-PARP1 protein levels", "setting": "C-PARP1 in TM4 cells", "result": "significantly increased"},
      {"measurement": "increase in ROS production", "setting": "[1]", "result": "~ 1.4 fold"},
      {"measurement": "log Kow (log octanol-water partition coefficient)", "setting": "[2]", "result": 6.35}
    ]},
    {"smiles": "CC(=O)N[C@@H](CS)C(=O)O", "note": "[NAC, N-acetylcysteine]", "values": [
      {"measurement": "effect on KCZ- and PCZ/KCZ-induced apoptosis and necrosis", "setting": "TM4 cells; co-incubation for 48 h with 1 mM NAC", "result": "significantly reduced"}
    ]},
    {"smiles": "CC(=O)N1CCN(c2ccc(OCC3COC(Cn4ccnc4)(c4ccc(Cl)cc4Cl)O3)cc2)CC1", "note": "(stereo not drawn) [KCZ, ketoconazole]", "values": [
      {"measurement": "IC50", "setting": "TM4 mouse Sertoli cells; Mus musculus, TM4, 48 h, 48 h of exposure, drug alone, 50% fraction of cells affected (Fa), non-linear fitting", "result": "~73", "unit": "µM"},
      {"measurement": "IC20", "setting": "TM4 mouse Sertoli cells; [5]", "result": "18.3 ± 2.4", "unit": "µM"},
      {"measurement": "IC80", "setting": "TM4 mouse Sertoli cells; [6]", "result": "293 ± 38.1", "unit": "µM"},
      {"measurement": "IC50", "setting": "TM4 mouse Sertoli cells; [4]", "result": "73.2 ± 9.5", "unit": "µM"},
      {"measurement": "apoptosis induction / cell death", "setting": "TM4 cells", "result": "a level of apoptosis-induction occurred"},
      {"measurement": "C-PARP1 protein levels", "setting": "C-PARP1 in TM4 cells", "result": "significantly increased"},
      {"measurement": "increase in ROS production", "setting": "[1]", "result": "~ 1.7 fold"},
      {"measurement": "mean intensity of red-orange fluorescence (MFI) of ΔΨm high population", "setting": "ΔΨm in TM4 cells", "result": "increases in MFI"},
      {"measurement": "plasma concentration", "setting": "[3]; human subjects, after treatment with 400 mg/day therapy", "result": 24.89, "unit": "µM"},
      {"measurement": "systemic absorption after topical administration", "setting": "[3]; human, topical KCZ", "result": "little systemic absorption"}
    ]}
  ]
}
